Measured values reported in patent publication US20080026943A1, “Phenyl-Substituted [1,2]-Oxazine-3,5-Dione and Dihydropyrone Derivatives” (priority 2004, published 2008).
Marks after values point to notes of the source that are not given here.

Tests used:
[1] = tested on: Pyricularia oryzae; format: cell-based; settings: tested at 0.1, 1, 10 and 100 ppm, 20° C., 3 to 5 days, photometric at 620 nm
[2] = tested on: Setaria; assay: Pre-emergence herbicidal effect, greenhouse; format: in vivo; settings: scored after 3 weeks
Text: (§1) Seeds of mono- and dicotyledonous weed and crop plants are placed in sandy loam soil in wood fibre pots and covered with soil. The test compounds, formulated as wettable powders (WP), are then applied as an aqueous suspension with a water application rate of 600 l/ha (converted) and with addition of 0.2% wetting agent, in different dosages to the surface of the covering soil. After the treatment, the pots are placed in a greenhouse and maintained under optimum growth conditions for the test plants. The visual scoring of the emergence damage on the trial plants is carried out after a trial time of 3 weeks in comparison to untreated controls (herbicidal effect in percent (%): 100% effect=plants have died, 0% effect=like control plants).

[3] = tested on: Lolium; assay: Pre-emergence herbicidal effect, greenhouse; format: in vivo; settings: scored after 3 weeks
Text: as §1

[4] = tested on: Setaria; assay: Post-emergence herbicidal effect, greenhouse; format: in vivo; settings: 320 g a.i./ha, scored after about 3 weeks
Method: (§2) Seeds of mono- and dicotyledonous weed and crop plants are placed in sandy loam soil in wood fibre pots, covered with soil and cultivated in a greenhouse under good growth conditions. 2-3 weeks after sowing, the trial plants are treated at the one-leaf stage. The test compounds, formulated as wettable powders (WP), are sprayed at various dosages with a water application rate of 600 l/ha (converted) and with addition of 0.2% wetting agent to the green parts of the plants. After the trial plants have stood in the greenhouse for about 3 weeks under optimum growth conditions, the effect of the products is scored visually in comparison to untreated controls (herbicidal effect in percent (%): 100% effect=plants have died, 0% effect=like control plants).

[5] = tested on: Lolium; assay: Post-emergence herbicidal effect, greenhouse; format: in vivo; settings: 320 g a.i./ha, scored after about 3 weeks
Method: as §2

[6] = tested on: Echinochloa; assay: Post-emergence herbicidal effect, greenhouse; format: in vivo; settings: 320 g a.i./ha, scored after about 3 weeks
Method: as §2

[7] = logP by HPLC on a reversed-phase column (C18), EEC Directive 79/831 Annex V.A8; format: physicochemical; settings: reversed-phase C18, 43° C., pH variant not stated for these values
Text: [table] The determination is made in the acidic range at a pH of 2.3 using 0.1% aqueous phosphoric acid and acetonitrile as eluents; linear gradient from 10% acetonitrile to 95% acetonitrile. The determination with LC-MS in the acidic range is made at a pH of 2.7 with 0.1% aqueous formic acid and acetonitrile (containing 0.1% formic acid) as eluents; linear gradient from 10% acetonitrile to 95% acetonitrile. The determination with LC-MS in the neutral range is made at a pH of 7.8 with 0.001 molar aqueous ammonium hydrogen carbonate solution and acetonitrile as eluents; linear gradient from 10% acetonitrile to 95% acetonitrile. Calibration is carried out with unbranched alkan-2-ones (having 3 to 16 carbon atoms), for which the logP values are known (logP values determined on the basis of the retention times by means of linear interpolation between two successive alkanones).

[8] = tested on: green peach aphid (Myzus persicae); assay: Myzus persicae test (MYZUPE), leaf immersion; format: in vivo; settings: 500 ppm; cabbage leaves immersed
Method: [table] A suitable preparation of active compound is prepared by mixing 1 part by weight of active compound with the stated amounts of solvent and emulsifier and diluting the concentrate with emulsifier-containing water to the desired concentration. Leaves of cabbage (Brassica oleracea) heavily infested by the green peach aphid (Myzus persicae) are treated by being immersed in the preparation of active compound at the desired concentration. After the desired time, the kill rate in % is determined. 100% means that all of the aphids have been killed; 0% means that no aphids have been killed.

[9] = tested on: Echinochloa; assay: Pre-emergence herbicidal effect, greenhouse; format: in vivo; settings: 1000 g a.i./ha, scored after 3 weeks
Text: as §1

[10] = tested on: Botrytis cinerea; assay: Botrytis test (bean)/protective; format: in vivo; settings: protective, 500 g/ha, two days after inoculation
Method: A suitable preparation of active compound is prepared by mixing 1 part by weight of active compound with the stated amounts of solvent and emulsifier and diluting the concentrate with water to the desired concentration.
To test for protective activity, young plants are sprayed with the preparation of active compound at the stated application rate. After the spray coating has dried on, two small pieces of agar colonized by Botrytis cinerea are placed on each leaf. The inoculated plants are placed in a darkened chamber at about 20° C. and 100% humidity.
Two days after inoculation, the size of the infestation spots on the leaves is evaluated. 0% denotes an efficacy corresponding to that of the control, while an efficacy of 100% denotes a total absence of observed infestation.

[11] = tested on: Digitaria; assay: Post-emergence herbicidal effect, greenhouse; format: in vivo; settings: 320 g a.i./ha, scored after about 3 weeks
Method: as §2

[12] = tested on: Sorghum; assay: Post-emergence herbicidal effect, greenhouse; format: in vivo; settings: 320 g a.i./ha, scored after about 3 weeks
Method: as §2

[13] = tested on: Sugarbeets; assay: Post-emergence herbicidal effect, greenhouse; format: in vivo; settings: 320 g a.i./ha, scored after about 3 weeks
Method: as §2

[14] = tested on: Venturia inaequalis; assay: Venturia test (apple)/protective; format: in vivo; settings: protective, 100 g/ha, 10 days after inoculation
Method: [table] A suitable preparation of active compound is prepared by mixing 1 part by weight of active compound with the stated amounts of solvent and emulsifier and diluting the concentrate with water to the desired concentration. To test for protective activity, young plants are sprayed with the preparation of active compound at the stated application rate. After the spray coating has dried on, the plants are inoculated with an aqueous conidia suspension of the causative organism of apple scab, Venturia inaequalis, and then spend 1 day in an incubation cabin at about 20° C. and 100% relative humidity. Thereafter the plants are placed in a greenhouse at about 21° C. and about 90% relative humidity.

[15] = tested on: Plasmopara viticola; assay: Plasmopara test (grapevine)/protective; format: in vivo; settings: protective, 100 g/ha, 6 days after inoculation
Method: [table] A suitable preparation of active compound is prepared by mixing 1 part by weight of active compound with the stated amounts of solvent and emulsifier and diluting the concentrate with water to the desired concentration. To test for protective activity, young plants are sprayed with the preparation of active compound at the stated application rate. After the spray coating has dried on, the plants are inoculated with an aqueous spore suspension of Plasmopara viticola and then spend 1 day in an incubation cabin at about 20° C. and 100% relative humidity. Thereafter the plants are placed in a greenhouse for 4 days at about 21° C. and about 90% humidity. The plants are then moistened and placed in an incubation cabin for 1 day.

[16] = tested on: Sinapis; assay: Post-emergence herbicidal effect, greenhouse; format: in vivo; settings: 320 g a.i./ha, scored after about 3 weeks
Method: as §2

Compound	ED50 (dose leading to 50% inhibition of fungal growth) [1] [ppm]	herbicidal effect in percent, Setaria [4] [%]	herbicidal effect in percent, Lolium [5] [%]	herbicidal effect in percent, Echinochloa [6] [%]	other results
Cc1ccc(C2(Cl)C(=O)N(C)OC(C)(C)C2=O)c(Cl)c1 (stereo not shown) [Example I-1-1]	<0.1				
CCc1cc(Cl)cc(Cl)c1C1(Cl)C(=O)N(C)OC(C)(C)C1=O (stereo not shown) [Example I-1-7]		90	90	90	herbicidal effect in percent, Setaria ([2]; 320 g a.i./ha): 100%; herbicidal effect in percent, Lolium ([3]; 320 g a.i./ha): 100%
CCc1cc(Br)ccc1C1(Cl)C(=O)N(C)OC(C)(C)C1=O (stereo not shown) [Example I-1-10]		80	90	90	
CN1OC(C)(C)C(=O)C(Cl)(c2cc(-c3ccc(Cl)cc3)ccc2Cl)C1=O (stereo not shown) [Example I-1-11]					log P [7]: log P 4.58*
Cc1ccc(-c2ccc(C(F)(F)F)cc2)cc1C1(Cl)C(=O)N(C)OC(C)(C)C1=O (stereo not shown) [Example I-1-12]					log P [7]: log P 4.56*
CC1(C)OC(=O)C(Cl)(c2cc(-c3ccc(Cl)cc3)ccc2Cl)C(=O)C1(C)C (stereo not shown) [Example I-2-1]	0.48				activity (kill rate in %) [8]: ≥ 80%
Cc1ccc(-c2ccc(Cl)cc2)cc1C1(Cl)C(=O)OC2CCCCC2(C)C1=O (stereo not shown) [Example I-2-2]	0.12	100	80	100	herbicidal effect in percent, Setaria ([2]; 1000 g a.i./ha): 100%; herbicidal effect in percent, Lolium ([3]; 1000 g a.i./ha): 80%; herbicidal effect in percent, Echinochloa [9]: 100%; Efficacy in % [10]: 93%; herbicidal effect in percent, Digitaria [11]: 100%; herbicidal effect in percent, Sorghum [12]: 80%; herbicidal effect in percent, Sugarbeets [13]: 0%; Efficacy in % [14]: 99%; Efficacy in % [15]: 100%
CC1(C)OC(=O)C(Cl)(c2cc(-c3ccc(Cl)cc3Cl)ccc2Cl)C(=O)C1(C)C (stereo not shown) [Example I-2-6]		90	70	90	herbicidal effect in percent, Sinapis [16]: 40%
Cc1ccc(-c2ccc(Cl)cc2)cc1C1(Cl)C(=O)OC(C)(C)C(C)(C)C1=O (stereo not shown) [Example I-2-10]		90	70	70	herbicidal effect in percent, Sinapis [16]: 80%
